# Results from patent US20230295109A1, “PYRIDINONE COMPOUNDS FOR THE TREATMENT OF AUTOIMMUNE DISEASE” (F. Hoffmann-La Roche AG, priority 2020, published 2023).
# Key:
# [1] = Human microsome stability assay; assay type: in vitro ADME; details: 1 µM test compound, 0.5 mg/mL liver microsomal protein, 37° C., pH 7.4
# Procedure: The human microsomal stability assay is used for early assessment of metabolic stability of a test compound in human liver microsomes.
# Human liver microsomes (Cat.NO.: 452117, Corning, USA;Cat.NO.:H2610, Xenotech, USA) were preincubated with test compound for 10 minutes at 37° C. in 100 mM potassium phosphate buffer, pH 7.4. The reactions were initiated by adding NADPH regenerating system. The final incubation mixtures contained 1 µM test compound, 0.5 mg/mL liver microsomal protein, 1 mM MgCl2, 1 mM NADP, 1 unit/mL isocitric dehydrogenase and 6 mM isocitric acid in 100 mM potassium phosphate buffer, pH 7.4. After incubation times of 0, 3, 6, 9, 15 and 30 minutes at 37° C., 300 µL of cold acetonitrile (including internal standard) was added to 100 µL incubation mixture to terminate the reaction. Following precipitation and centrifugation, the amount of compound remaining in the samples were determined by LC-MS/MS. Controls of no NADPH regenerating system at zero and 30 minutes were also prepared and analyzed.
# human TLR8 = molecular target: T1, human TLR8 (Homo sapiens, UniProt Q9NR97); experiment: HEK293-Blue-hTLR-8 cells assay; assay type: cell-based; details: HEK293-Blue-hTLR8 cells, R848 stimulation, 20 hrs, SEAP reporter; read-out: HEK/hTLR8 IC50
# T1 construct: host or cells: HEK293 (HEK-Blue hTLR8)
# T1 sequence (Q9NR97 27-1041): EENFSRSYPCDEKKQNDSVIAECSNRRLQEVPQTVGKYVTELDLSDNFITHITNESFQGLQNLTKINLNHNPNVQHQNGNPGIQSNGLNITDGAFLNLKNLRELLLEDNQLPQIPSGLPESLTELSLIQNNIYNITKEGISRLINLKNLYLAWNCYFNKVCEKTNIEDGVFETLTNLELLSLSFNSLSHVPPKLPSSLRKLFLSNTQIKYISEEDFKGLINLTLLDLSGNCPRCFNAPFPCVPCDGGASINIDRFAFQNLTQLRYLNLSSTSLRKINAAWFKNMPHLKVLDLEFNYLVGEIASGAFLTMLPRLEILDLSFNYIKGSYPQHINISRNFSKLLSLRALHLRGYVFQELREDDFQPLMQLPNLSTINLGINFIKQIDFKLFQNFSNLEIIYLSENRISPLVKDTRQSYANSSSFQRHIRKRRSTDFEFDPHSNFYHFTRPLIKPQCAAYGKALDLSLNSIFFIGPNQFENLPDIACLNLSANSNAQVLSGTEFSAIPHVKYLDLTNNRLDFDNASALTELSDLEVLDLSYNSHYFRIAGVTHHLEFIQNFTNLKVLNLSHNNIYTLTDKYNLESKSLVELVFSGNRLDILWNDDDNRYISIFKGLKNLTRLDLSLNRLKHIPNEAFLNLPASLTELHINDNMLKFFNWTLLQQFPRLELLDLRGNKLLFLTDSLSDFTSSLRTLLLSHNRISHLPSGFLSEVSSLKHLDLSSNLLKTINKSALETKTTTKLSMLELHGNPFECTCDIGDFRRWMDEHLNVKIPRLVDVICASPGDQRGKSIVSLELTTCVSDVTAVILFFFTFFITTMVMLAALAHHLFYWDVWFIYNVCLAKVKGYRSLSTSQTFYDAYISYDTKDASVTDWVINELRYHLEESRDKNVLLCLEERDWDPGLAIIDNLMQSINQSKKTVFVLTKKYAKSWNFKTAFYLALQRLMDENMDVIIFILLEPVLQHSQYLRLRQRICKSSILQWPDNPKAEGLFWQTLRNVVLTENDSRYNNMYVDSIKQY
# From the text: A stable HEK293-Blue-hTLR-8 cell line was purchased from InvivoGen (Cat.#: hkb-htlr8, San Diego, California, USA). These cells were originally designed for studying the stimulation of human TLR8 by monitoring the activation of NF-κB. A SEAP (secreted embryonic alkaline phosphatase) reporter gene was placed under the control of the IFN-β minimal promoter fused to five NF-κB and AP-1-binding sites. The SEAP was induced by activating NF-κB and AP-1 via stimulating HEK-Blue hTLR8 cells with TLR8 ligands. Therefore the reporter expression was declined by TLR8 antagonist under the stimulation of a ligand, such as R848, for incubation of 20 hrs. The cell culture supernatant SEAP reporter activity was determined using QUANTI-Blue™ kit (Cat.#: rep-qb1, Invivogen, San Diego, Ca, USA) at a wavelength of 640 nm, a detection medium that turns purple or blue in the presence of alkaline phosphatase.
# HEK293-Blue-hTLR8 cells were incubated at a density of 250,000~450,000 cells/mL in a volume of 170 µL in a 96-well plate in Dulbecco’s Modified Eagle’s medium (DMEM) containing 4.5 g/L glucose, 50 U/mL penicillin, […], […], 2 mM L-glutamine, 10% (v/v) heat-inactivated fetal bovine serum with addition of 20 µL test compound in a serial dilution in the presence of final DMSO at 1% and 10 µL of 60uM R848 in above DMEM, perform incubation under 37° C. in a CO2 incubator for 20 hrs. Then 20 µL of the supernatant from each well was incubated with 180 µL Quanti-blue substrate solution at 37° C. for 2 hrs and the absorbance was read at 620 \~655 nm using a spectrophotometer. The signaling pathway that TLR8 activation leads to downstream NF-κB activation has been widely accepted, and therefore similar reporter assay was modified for evaluating TLR8 antagonist.
Clearance of Human microsome [1],IC50 (human TLR8),SMILES
7.4 mL/min/kg,0.3 nM,"Cc1cc(-c2ccc(N3CCN(Cc4ccc(N5CCNCC5)cn4)CC3)nc2C(C)C)cn(C)c1=O [Example 7, 5-[2-isopropyl-6-[4-[(5-piperazin-1-yl-2-pyridyl)methyl]piperazin-1-yl]-3-pyridyl]-1,3-dimethyl-pyridin-2-one]"
8.3 mL/min/kg,0.3 nM,"Cc1cc(-c2ccc(N3CCN(Cc4cnc(N5CCNCC5)cn4)CC3)nc2C(C)C)cn(C)c1=O [Example 8, 5-[2-isopropyl-6-[4-[(5-piperazin-1-ylpyrazin-2-yl)methyl]piperazin-1-yl]-3-pyridyl]-1,3-dimethyl-pyridin-2-one]"
7.8 mL/min/kg,0.3 nM,"Cc1cc(-c2ccc(N3CCN(Cc4cnc(N5CCNCC5)nc4)CC3)nc2C(C)C)cn(C)c1=O [Example 9, 5-[2-isopropyl-6-[4-[(2-piperazin-1-ylpyrimidin-5-yl)methyl]piperazin-1-yl]-3-pyridyl]-1,3-dimethyl-pyridin-2-one]"
8.8 mL/min/kg,0.7 nM,"Cc1cc(-c2ccc(N3CCN(Cc4ncc(N5CCNCC5)cn4)CC3)nc2C(C)C)cn(C)c1=O [Example 12, 5-[2-isopropyl-6-[4-[(5-piperazin-1-ylpyrimidin-2-yl)methyl]piperazin-1-yl]-3-pyridyl]-1,3-dimethyl-pyridin-2-one]"
8.3 mL/min/kg,0.3 nM,"Cc1cc(-c2ccc(N3CCN(Cc4cccc(N5CCNCC5)c4)CC3)nc2C(C)C)cn(C)c1=O [Example 14, 5-[2-isopropyl-6-[4-[(3-piperazin-1-ylphenyl)methyl]piperazin-1-yl]-3-pyridyl]-1,3-dimethyl-pyridin-2-one]"
8.7 mL/min/kg,2 nM,"Cc1cc(-c2ccc(N3CCN(c4ccc5c(n4)CCNC5)CC3)nc2C(C)C)cn(C)c1=O [Example 15, 5-[2-isopropyl-6-[4-(5,6,7,8-tetrahydro-1,6-naphthyridin-2-yl)piperazin-1-yl]-3-pyridyl]-1,3-dimethyl-pyridin-2-one]"
8.5 mL/min/kg,0.3 nM,"Cc1cc(-c2ccc(N3CCN(Cc4ccc(N5CCNCC5)cc4)CC3)nc2C(F)F)cn(C)c1=O [Example 17, 5-[2-(difluoromethyl)-6-[4-[(4-piperazin-1-ylphenyl)methyl]piperazin-1-yl]-3-pyridyl]-1,3-dimethyl-pyridin-2-one]"
7.5 mL/min/kg,0.8 nM,"Cc1cc(-c2ccc(N3CCC(N4CCNCC4)CC3)nc2C(C)C)cn(C)c1=O [Example 18, 5-[2-isopropyl-6-(4-piperazin-1-yl-1-piperidyl)-3-pyridyl]-1,3-dimethyl-pyridin-2-one]"
